Calls of active or inactive are those of the source. The calls are words filed in the database; no cut-off is given here.
How the values were obtained:
[1] = Inhibition of RANKL-induced C57BL/6 mouse bone marrow monocytes differentiation into osteoclasts at 0.5 uM after 6 days in presence of M-CSF by tartrate-resistant acid phosphatase staining based assay relative to control; assay type: functional; settings: C57BL/6, Bone marrow monocyte, 144 h
[2] = system: Bone marrow monocyte; experiment: Inhibition of RANKL-induced TRAP mRNA expression in C57BL/6 mouse bone marrow monocytes measured after 5 days in presence of M-CSF by SYBR green-dye based qRT-PCR analysis; assay type: functional, cell-based
[3] = system: Mus musculus; experiment: Inhibition of ovariectomized-induced osteoclast activity in C57BL/6 mouse femur at 5 mg/kg, ip administered for 60 days by tartrate-resistant acid phosphatase staining; assay type: functional, organism-based
[4] = system: Bone marrow monocyte; experiment: Inhibition of RANKL-induced NFATc1 mRNA expression in C57BL/6 mouse bone marrow monocytes at 10 uM in presence of M-CSF by SYBR green-dye based qRT-PCR analysis; assay type: functional, cell-based; settings: TDE = time-dependent effect
[5] = system: Bone marrow monocyte; experiment: Inhibition of RANKL-induced NFATc1 mRNA expression in C57BL/6 mouse bone marrow monocytes measured after 5 days in presence of M-CSF by SYBR green-dye based qRT-PCR analysis; assay type: functional, cell-based
[6] = organism: Mus musculus; experiment: Inhibition of RANKL-induced IKK-mediated NF-kappa-B p65 phosphorylation in mouse […] cells at 10 uM pretreated for 4 hrs followed by RANKL stimulation measured for 60 mins by Western blot method; assay type: cell-based
[7] = system: Bone marrow monocyte; experiment: Inhibition of RANKL-induced CTR mRNA expression in C57BL/6 mouse bone marrow monocytes at 10 uM in presence of M-CSF by SYBR green-dye based qRT-PCR analysis; assay type: functional, cell-based; settings: TDE = time-dependent effect
[8] = system: Bone marrow monocyte; experiment: Inhibition of RANKL-induced cathepsin K mRNA expression in C57BL/6 mouse bone marrow monocytes measured after 5 days in presence of M-CSF by SYBR green-dye based qRT-PCR analysis; assay type: functional, cell-based
[9] = Cytotoxicity against C57BL/6 mouse bone marrow monocytes assessed as reduction in cell viability at 2 uM after 72 hrs in presence of M-CSF by MTS assay; assay type: cell-based; settings: bone marrow monocyte
[10] = Inhibition of RANKL-induced C57BL/6 mouse bone marrow monocytes differentiation into osteoclasts at 0.1 uM after 6 days in presence of M-CSF by tartrate-resistant acid phosphatase staining based assay relative to control; assay type: functional; settings: C57BL/6, Bone marrow monocyte, 144 h
[11] = system: Bone marrow monocyte; experiment: Inhibition of RANKL-induced C-src mRNA expression in C57BL/6 mouse bone marrow monocytes at 10 uM in presence of M-CSF by SYBR green-dye based qRT-PCR analysis; assay type: functional, cell-based; settings: TDE = time-dependent effect
[12] = Potency index, ratio of maslinic acid IC50 to compound IC50 for RANKL-induced C57BL/6 mouse bone marrow monocytes differentiation into osteoclasts; assay type: functional, Bone marrow monocyte
[13] = organism: Mus musculus; experiment: Inhibition of RANKL-induced JNK phosphorylation in mouse […] cells at 10 uM pretreated for 4 hrs followed by RANKL stimulation measured for 60 mins by Western blot method; assay type: cell-based
[14] = Inhibition of RANKL-induced C57BL/6 mouse bone marrow monocytes differentiation into osteoclasts at 2 uM after 6 days in presence of M-CSF by tartrate-resistant acid phosphatase staining based assay relative to control; assay type: functional; settings: C57BL/6, Bone marrow monocyte, 144 h
[15] = system: Bone marrow monocyte; experiment: Inhibition of RANKL-induced TRAP mRNA expression in C57BL/6 mouse bone marrow monocytes at 10 uM in presence of M-CSF by SYBR green-dye based qRT-PCR analysis; assay type: functional, cell-based; settings: TDE = time-dependent effect
[16] = system: Mus musculus; experiment: Protection against ovariectomized-induced osteoporosis in C57BL/6 mouse assessed as reduction in femur structure model index at 20 mg/kg, ip administered for 60 days by micro computed tomography; assay type: functional, organism-based
[17] = system: Mus musculus; experiment: Protection against ovariectomized-induced osteoporosis in C57BL/6 mouse assessed as reduction in trabecular separation of femur at 20 mg/kg, ip administered for 60 days by micro computed tomography; assay type: functional, organism-based
[18] = system: Mus musculus; experiment: Anti-osteoporotic activity in ovariectomized-induced osteoporosis in C57BL/6 mouse assessed as increase in bone strength at 20 mg/kg, ip administered for 60 days by three point bending test; assay type: functional, organism-based
[19] = system: Bone marrow monocyte; experiment: Inhibition of RANKL-induced cathepsin K mRNA expression in C57BL/6 mouse bone marrow monocytes at 10 uM in presence of M-CSF by SYBR green-dye based qRT-PCR analysis; assay type: functional, cell-based; settings: TDE = time-dependent effect
[20] = organism: Mus musculus; experiment: Inhibition of RANKL-induced IKK mediated IkappaBalpha degradation in mouse […] cells at 10 uM pretreated for 4 hrs followed by RANKL stimulation measured for 60 mins by Western blot method; assay type: cell-based
[21] = Cytotoxicity against C57BL/6 mouse bone marrow monocytes assessed as reduction in cell viability at 20 uM after 72 hrs in presence of M-CSF by MTS assay; assay type: cell-based; settings: bone marrow monocyte
[22] = system: Mus musculus; experiment: Inhibition of ovariectomized-induced osteoclast activity in C57BL/6 mouse femur at 20 mg/kg, ip administered for 60 days by tartrate-resistant acid phosphatase staining method; assay type: functional, organism-based
[23] = Selectivity index, ratio of IC50 for C57BL/6 mouse bone marrow monocytes to IC50 for RANKL-induced C57BL/6 mouse bone marrow monocytes differentiation into osteoclasts; parameters: species or system Bone marrow monocyte
[24] = system: Bone marrow monocyte; experiment: Inhibition of RANKL-induced C-src mRNA expression in C57BL/6 mouse bone marrow monocytes measured after 5 days in presence of M-CSF by SYBR green-dye based qRT-PCR analysis; assay type: functional, cell-based
[25] = molecular target: MAP kinase p38 (Mus musculus) (UniProt P47811+O08911+Q9WUI1+Q9Z1B7); experiment: Inhibition of RANKL-induced p38 phosphorylation in mouse […] cells at 10 uM pretreated for 4 hrs followed by RANKL stimulation measured for 60 mins by Western blot method; assay type: cell-based
[26] = system: Mus musculus; experiment: Protection against ovariectomized-induced osteoporosis in C57BL/6 mouse assessed as increase in bone mineral density of femur at 20 mg/kg, ip administered for 60 days by micro computed tomography; assay type: functional, organism-based
[27] = system: Mus musculus; experiment: Protection against ovariectomized-induced osteoporosis in C57BL/6 mouse assessed as increase in trabecular thickness of femur at 20 mg/kg, ip administered for 60 days by micro computed tomography; assay type: functional, organism-based
[28] = Cytotoxicity against C57BL/6 mouse bone marrow monocytes assessed as reduction in cell viability after 72 hrs in presence of M-CSF by MTS assay; assay type: cell-based; settings: C57BL/6, Bone marrow monocyte
[29] = system: Mus musculus; experiment: Toxicity in ovariectomized C57BL/6 mouse assessed as effect on body weight at 5 to 20 mg/kg, ip administered for 60 days measured every 7 days during compound dosing; assay type: organism-based; settings: in vivo
[30] = (§1) Inhibition of RANKL-induced C57BL/6 mouse bone marrow monocytes differentiation into osteoclasts after 6 days in presence of M-CSF by tartrate-resistant acid phosphatase staining based assay; assay type: functional, cell-based; settings: C57BL/6, Bone marrow monocyte, 144 h
[31] = system: Bone marrow monocyte; experiment: as §1; assay type: functional, cell-based
[32] = Effect on osteblast differentiation in mouse Mesenchymal stem cells at 2 to 10 uM measured after 7 days in presence of dexamethasone/b-glycerophosphate/Vitamin C by ALP staining assay; assay type: cell-based; settings: mesenchymal stem cell, 168 h
[33] = system: Mus musculus; experiment: Protection against ovariectomized-induced osteoporosis in C57BL/6 mouse assessed as increase in trabecular number of femur at 20 mg/kg, ip administered for 60 days by micro computed tomography; assay type: functional, organism-based
[34] = organism: Mus musculus; experiment: Inhibition of RANKL-induced ERK phosphorylation in mouse […] cells at 10 uM pretreated for 4 hrs followed by RANKL stimulation measured for 60 mins by Western blot method; assay type: cell-based
[35] = system: Mus musculus; experiment: Protection against ovariectomized-induced osteoporosis in C57BL/6 mouse assessed as increase in ratio of bone volume to tissue volume of femur at 20 mg/kg, ip administered for 60 days by micro computed tomography; assay type: functional, organism-based
[36] = system: Bone marrow monocyte; experiment: Inhibition of RANKL-induced CTR mRNA expression in C57BL/6 mouse bone marrow monocytes measured after 5 days in presence of M-CSF by SYBR green-dye based qRT-PCR analysis; assay type: functional, cell-based

inhibition [25]: Active
IC50 [30]: 0.04 µM
Structure (SMILES): CNC(=O)c1cc2c(cc1OC)[C@@]1(C)Cc3nc(C)oc3C(C)(C)[C@@H]1CC2
inhibition at 0.5 µM [1]: 92.7%
inhibition [2]: Dose-dependent effect
inhibition [3]: inactive
inhibition [4]: Tde
inhibition [5]: Dose-dependent effect
inhibition [6]: Active
inhibition [7]: Tde
inhibition [8]: Dose-dependent effect
Activity [9]: Non-Toxic
inhibition at 0.1 µM [10]: 72.3%
inhibition [11]: Tde
Ratio IC50 [12]: 16
inhibition [13]: Active
inhibition at 2 µM [14]: 100%
inhibition [15]: Tde
Activity [16]: Active
Activity [17]: Active
Activity [18]: Active
inhibition [19]: Tde
inhibition [20]: Active
Activity [21]: Toxic
inhibition [22]: Active
Ratio IC50 [23]: 2208
inhibition [24]: Dose-dependent effect
Activity [26]: Active
Activity [27]: Active
IC50 [28]: 88.3 µM
Activity [29]: Non-Toxic
inhibition [31]: Dose-dependent effect
Activity [32]: Non-Toxic
Activity [33]: Active
inhibition [34]: Active
Activity [35]: Active
inhibition [36]: Dose-dependent effect

Source: ChEMBL document CHEMBL4038270, “Synthesis of heterocyclic ring-fused tricyclic diterpene analogs as novel inhibitors of RANKL-induced osteoclastogenesis and bone resorption” (Eur J Med Chem, 2017)
